Experimental data reported in article PMC5477230 (Nature chemical biology, 2016).
Entries after “also recorded” stand apart in the source; their conditions may differ. Read-outs that look alike come from different tables or passages of the source. * marks the point of attachment. Cbz = O=C(OCc1ccccc1)*; CH2F = FC*

Experiments:
RAW 264.7 cells = assay: LDH cytotoxicity assay, RAW 264.7; conditions: for effect on cumulative Val-boroPro-induced LDH release: RAW 264.7, 24 hours; for blockade of Val-boroPro-induced pyroptosis: RAW 264.7 macrophages, 50 μM, 30 min pre-treatment, 6 h; for LDH release: RAW 264.7
THP-1 macrophages [1] = conditions: for blockade of Val-boroPro-induced pyroptosis: THP-1 macrophages, 50 μM, 30 min pre-treatment, 6 h; for LDH release: wild-type THP-1 cells
DPP7 = conditions: cited from earlier work
[2] = tested on: DPP8/9 knockout THP-1 cells; assay: CellTiter-Glo cell viability, DPP8/9 knockout THP-1; type: cell-based; conditions: read-out: IC50 cell viability (CellTiter-Glo); DPP8/9 KO1 THP-1, 48 h
[3] = tested on: caspase-1 knockout RAW 264.7 cells; assay: Cell viability, caspase-1 knockout RAW 264.7; type: cell-based, mouse; conditions: for cell killing: caspase-1 knockout RAW 264.7
GSDMD = GSDMD cleavage by immunoblotting; type: cell-based; conditions: THP-1 cells, 24 h
J774 cells [4] = conditions: cited from earlier work
HT-1080 cells = assay: CellTiter-Glo cell viability, HT-1080; type: cell-based; conditions: HT-1080, 48 h
rats = conditions: cited from earlier work
DPP9 = conditions: read-out: IC50 DPP9; cited from earlier work
[5] = tested on: U937 cells and monocyte-derived macrophages; conditions: 8 μM; cited from earlier work
DPP8 = conditions: read-out: IC50 DPP8; cited from earlier work
MCF7 cells = assay: CellTiter-Glo cell viability, MCF7; type: cell-based; conditions: MCF7, 48 h
[6] = tested on: DPP9 knockout THP-1 cells; assay: LDH cytotoxicity assay, DPP9 knockout THP-1; type: cell-based
[7] = tested on: CASP1 knockout THP-1 cells; assay: CellTiter-Glo cell viability, CASP1 knockout THP-1; type: cell-based; conditions: CASP1 knockout THP-1, 48 h, compared to DMSO
[8] = tested on: DPP8/9 double knockout THP-1 cells; assay: LDH cytotoxicity assay, DPP8/9 double knockout THP-1; type: cell-based
control THP-1 cells = assay: CellTiter-Glo cell viability, control THP-1; type: cell-based; conditions: read-out: IC50 cell viability (CellTiter-Glo)
DPP4 = conditions: cited from earlier work
[9] = tested on: Caspase-1 knockout THP-1 cells; assay: LDH cytotoxicity assay, caspase-1 knockout THP-1; type: cell-based
U937 cells = assay: LDH cytotoxicity assay, U937
[10] = tested on: Casp1−/− knockout C57BL/6NJ mice; assay: Cytokine stimulation in Casp1−/− knockout mice; type: in vivo; conditions: 100 μg/mouse, 6 h
[11] = tested on: GSDMD knockout THP-1 cells; assay: LDH cytotoxicity assay, GSDMD knockout THP-1; type: cell-based
SCPEP1 = SCPEP1 (Homo sapiens, UniProt Q9HB40); assay: EnPlex serine hydrolase selectivity profiling; type: biochemical; conditions: 10 μM; EnPlex and competitive ABPP
[12] = tested on: primary mouse bone marrow derived macrophages (mBMDMs); assay: LDH cytotoxicity assay, mBMDMs
J774 cells [13] = assay: LDH cytotoxicity assay, J774
THP-1 macrophages [14] = assay: IL-1β expression by immunoblotting; conditions: 10 μM
[15] = tested on: primary human peripheral blood mononuclear cells (hPBMCs); assay: LDH cytotoxicity assay, hPBMCs
ASC-knockout THP-1 cells = type: cell-based
wild-type mice = assay: Cytokine stimulation in wild-type mice; type: in vivo; conditions: oral, Val-boroPro 100 μg/mouse, sitagliptin 1000 μg/mouse
HL-60 cells = assay: LDH cytotoxicity assay, HL-60

Chain of SCPEP1 (Q9HB40 27-452, species assumed): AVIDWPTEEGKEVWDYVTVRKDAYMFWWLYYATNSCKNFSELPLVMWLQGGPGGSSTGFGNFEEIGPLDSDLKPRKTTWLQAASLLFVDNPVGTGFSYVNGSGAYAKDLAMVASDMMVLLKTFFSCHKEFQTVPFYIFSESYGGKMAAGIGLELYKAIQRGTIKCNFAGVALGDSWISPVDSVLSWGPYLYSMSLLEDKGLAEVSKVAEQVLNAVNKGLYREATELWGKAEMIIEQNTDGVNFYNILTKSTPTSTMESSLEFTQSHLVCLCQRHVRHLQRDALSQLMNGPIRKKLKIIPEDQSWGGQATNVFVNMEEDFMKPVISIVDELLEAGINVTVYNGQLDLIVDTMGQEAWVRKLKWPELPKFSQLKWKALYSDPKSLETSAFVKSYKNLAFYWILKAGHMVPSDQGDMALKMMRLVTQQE

Ac-YVAD-CMK
effect on cumulative Val-boroPro-induced LDH release (RAW 264.7 cells): no impact
blockade of Val-boroPro-induced pyroptosis (RAW 264.7 cells): completely blocked
effect on cumulative Val-boroPro-induced LDH release (THP-1 macrophages [1]; THP-1, over 24 hours): no impact
blockade of Val-boroPro-induced pyroptosis (THP-1 macrophages [1]): completely blocked

1G244
inhibition of DPP7 (DPP7): does not inhibit
IC50 [2]: 21.5 µM
LDH release (RAW 264.7 cells): induced similar LDH release
cell killing [3]: kills
caspase-1-independent cell death ([3]; mouse RAW 264.7 cells, 10 μM): small amounts of caspase-1-independent cell death
GSDMD cleavage (GSDMD): significant cleavage of GSDMD
cell death (J774 cells [4]): induces cell death
cell killing (CellTiter-Glo) (HT-1080 cells): kills
toxic effects after injection (rats; 30 mg/kg): startle reflex, convulsions and cyanosis
concentrations achieved in animals (rats): > 10 µM
toxic effects after injection (rats; ≥60 mg/kg): immediate death
IC50 (DPP9): 0.053 µM
form of cell death induced [5]: induced a form of cell death that appeared to be apoptosis
IC50 (DPP8): 0.014 µM
cell killing (CellTiter-Glo) (MCF7 cells): kills
additional LDH release / cytotoxicity ([6]; DPP9 knockout THP-1, Val-boroPro 2 μM, 1G244 10 μM, 24 h): induced additional LDH release
cell death (CellTiter-Glo) [7]: killed
additional LDH increase [8]: no additional LDH increase
LDH release (THP-1 macrophages [1]): induced similar LDH release
IC50 (control THP-1 cells; control THP-1, 48 h): 2.7 µM
inhibition of DPP4 (DPP4): does not inhibit
sensitivity of cells to compound (LDH) [9]: resistant

N#C[C@@H]1C[C@@H]2C[C@@H]2N1C(=O)[C@@H](N)C12CC3CC(CC(O)(C3)C1)C2 [saxagliptin]
IC50 (control THP-1 cells; Homo sapiens, THP-1, 48 h): 2.5 to 18.7 µM

N#C[C@@H]1CCCN1C(=O)CNC12CC3CC(CC(O)(C3)C1)C2 [vildagliptin]
IC50 (control THP-1 cells; Homo sapiens, THP-1, 48 h): 2.5 to 18.7 µM

CC(C)[C@H](N)C(=O)N1CCC[C@H]1B(O)O [Val-boroPro]
inhibition of DPP7 (DPP7; relative to DPP4, DPP8, DPP9): more weakly inhibit
LDH release (U937 cells): do not release LDH
serum CXCL1/KC increase [10]: no increase
serum G-CSF increase [10]: no increase
LDH release (RAW 264.7 cells): released LDH; also recorded: induced similar LDH release
cell killing [3]: resistant
GSDMD cleavage (GSDMD): significant cleavage of GSDMD
onset of induced cell death [11]: significantly delayed
inhibition of SCPEP1 (previously unknown target) (SCPEP1): inhibited
LDH release [12]: released LDH
LDH release (J774 cells [13]): released LDH
increase of intracellular pro-IL-1β levels (THP-1 macrophages [14]): ~ 2 fold
additional LDH release / cytotoxicity [6]: induce additional cytotoxicity
LDH release [15]: released LDH
cytotoxic response (LDH) (ASC-knockout THP-1 cells): responded equivalently
additional LDH increase [8]: no additional LDH increase
serum CXCL1/KC induction (wild-type mice): dramatically induces
serum G-CSF induction (wild-type mice): dramatically induces
LDH release (HL-60 cells): released LDH
LDH release (THP-1 macrophages [1]): induced similar LDH release
sensitivity of cells to compound (LDH) [9]: resistant

Cbz-Val-Ala-Asp-CH2F
effect on cumulative Val-boroPro-induced LDH release (RAW 264.7 cells): only partially reduced
blockade of Val-boroPro-induced pyroptosis (RAW 264.7 cells): completely blocked
blockade of Val-boroPro-induced pyroptosis (THP-1 macrophages [1]): completely blocked
